# Test results taken from patent US20220308068A1, “BIOMARKER IN OSTEOPOROSIS INTERVENTION THERAPY BY BONE PEPTIDE, SCREENING METHOD AND USE THEREOF” (Institute of Food Science and Technology, Chinese Academy …, priority 2019, published 2022).
# Assays:
# [1] = tested on: ovariectomized osteoporosis rat model; test: Micro-CT of right femurs; type: in vivo, SD rats; conditions: vs Model group
# Protocol: (§1) 1, the construction of ovariectomized rats models: SD rats are kept in a clean environment under a controlled room temperature at 25±2° C. and alternates 12/12 light and dark every day, and the SD rats feed freely. After one week adaptive feeding, randomly select 8 female rats, anesthetize them with 1% (v/v) pentobarbital sodium (40 mg/kg BW), and remove a little fat near ovaries. The remaining 40 rats are ovariectomized after being anesthetized with pentobarbital sodium. The recovery situation is observed in a 4-week recovery period, and their weight changes are detected. These are prepared by the applicant in advance. (any research about metabolic fingerprint changes of ovariectomized osteoporotic rats after intervention with bone peptide have not been reported according to the existing literature). 2, animal grouping and samples collection: the 8 female rats with a little fat near ovaries removed are selected as a sham-operated group, the ovariectomized 40 rats are randomly divided into 5 groups with 8 rats in each group, and are named by a negative control group, a positive control group, a low-concentration treatment group, a medium-concentration treatment group and a high-concentration treatment group. The rats are perfused by different solutions of bovine bone peptide (diluted by ultrapure water, and sterilized) with concentration of 100 mg/kg, 200 mg/kg, and 500 mg/kg according to the weights of the rats. The rats in the negative control group are perfused with equal volume of ultrapure sterile water (a perfusing volume is generally 1-2 mL/100 g BW), and the rats in the positive control group are perfused with 50 μg/kg of 17β-estradiol (ES). Observe weight changes of the rats and measure the weights every two weeks. After perfusing experiment, the rats are sacrificed in accordance with the animal welfare operating procedures, femurs and tibias on both sides are taken, and soft tissues such as muscle and fascia attached to bone tissues are removed. The right tibias are subjected to paraffin-embedded H&E staining treatment after fixing in a phosphate-formalin buffer for 24 hours for morphometric analysis of the tibias of the rats. Left femurs and right femurs is soaked with normal saline, washed repeatedly for 3 times, wrapped with medical gauzes (pre-soaked with normal saline) and tinfoil, and then stored in a −20° C. refrigerator for trabecular bone microstructure (micro-CT scanning) and mechanical strength tests of bone biomechanical indexes (three-point bending test). In the screening method of the biomarkers in the anti-osteoporosis activity of bone peptide, the specific implementation steps of determining biomechanical indexes of the right femurs of the rats by the Micro-CT method are as follows: determining femur microstructures by Micro Computed Tomography (Micro-CT, Inveon-type, SIEMENS, Germany) with scanning parameters: a span voltage of 80 kV, a scanning current of 500 μA, and a scanning thickness (resolution) of 14.93 Region of interest (ROI) of femurs starts from 1 mm below a bone tissue growth-plate. Scan the layers downward and sequentially. Select the bone tissue with a thickness of 100 layers as cancellous ROI for three-dimensional reconstruction to obtain a visualized 3D image. The obtained scanning data are subjected to morphometric calculation of femur tissues using Inveon Research Workplace software (SIEMENS, Germany). […]
# [2] = tested on: ovariectomized osteoporosis rat model; test: H&E staining of right tibias; type: in vivo, SD rats; conditions: right tibia, 12 weeks of intervention treatment
# Protocol: as §1, with “test).” for “test). In the screening method of the biomarkers in the anti-osteoporosis activity of bone peptide, the specific implementation steps of determining biomechanical indexes of the right femurs of the rats by the Micro-CT method are as follows: determining femur microstructures by Micro Computed Tomography (Micro-CT, Inveon-type, SIEMENS, Germany) with scanning parameters: a span voltage of 80 kV, a scanning current of 500 μA, and a scanning thickness (resolution) of 14.93 Region of interest (ROI) of femurs starts from 1 mm below a bone tissue growth-plate. Scan the layers downward and sequentially. Select the bone tissue with a thickness of 100 layers as cancellous ROI for three-dimensional reconstruction to obtain a visualized 3D image. The obtained scanning data are subjected to morphometric calculation of femur tissues using Inveon Research Workplace software (SIEMENS, Germany).”
smiles,measurement,setting,value
"C[C@]12CC[C@@H]3c4ccc(O)cc4CC[C@H]3[C@@H]1CC[C@@H]2O [ES, 17β-estradiol]",osteoporosis of the rats (three dimensional reconstruction of femur bone microstructures),[1]; after treatment,improved to a certain extent
same,bone volume fraction (BV/TV),[1]; right femur,on a rise trend
same,trabecular bone density (Tb.BMD),[1]; right femur,on a rise trend
same,trabecular bone number (Tb.N),[1]; right femur,on a rise trend
same,trabecular bone thickness (Tb.Th),[1]; right femur,on a rise trend
same,trabecular bone area,[2],significantly increased
same,trabecular bone connection,[2],tighter
same,trabecular bone spacing,[2],smaller
same,trabecular bone width,[2],wider
